Test system: basal cell carcinoma (BCC) lesions on the face
Assay: Randomized, double-blind, vehicle-controlled study of Patidegib Topical Gel, 2% in Gorlin syndrome participants, ITT, all types of subjects (Example 3)
Format: in vivo, human
Details: PTCH1 mutation not required, gel 2% twice daily to face
From the text: A randomized, double-blind, stratified, vehicle-controlled study was done, measuring the efficacy and safety of Patidegib Topical Gel, 2%, applied topically twice daily to the face of adult participants with Gorlin syndrome. The Participants were required to apply the investigational product for 12 months. The primary endpoint is a comparison between the two treatment arms of the number of new BCCs that develop over the 12 month period.
Participants will be randomized to receive Patidegib Topical Gel, 2%. The Patidegib Topical Gel, 2% will be dispensed to participants at each study visit and applied topically twice daily to the face.
Participants will be randomized to receive Vehicle. The Patidegib Topical Gel, Vehicle will be dispensed to participants at each study visit and applied topically twice daily to the face.
• 1. The participant must be age at least 18 years of age at the Screening Visit. • 2. The participant must provide written informed consent prior to any study procedures. • 3. The participant must meet diagnostic criteria for the basal cell nevus (Gorlin) syndrome including major criterion #3a plus 1 additional major criterion or plus 2 additional minor criteria listed below.
• a. >2 histologically confirmed BCCs or 1 for participant under age 20. • b. Odontogenic keratocysts of the jaw confirmed histologically. • c. ≥3 palmar and/or plantar pits seen at the Screening Visit. • d. Bilamellar calcification of the falx cerebri present at less than 20 years of age. • e. Fused, bifid, or markedly splayed ribs. • f. First degree relative with Gorlin syndrome. • g. Patched protein 1 (PTCH1) mutation predicted to be of functional significance in normal tissue.
• h. Macrocephaly. • i. Congenital malformations including frontal bossing, cleft lip or palate, “coarse face”, moderate to severe hypertelorism. • j. Skeletal abnormalities detectable clinically: Sprengel deformity, marked pectus deformity, or marked finger syndactyly. • k. Skeletal abnormalities detectable radiographically: bridging of the sella turcica; vertebral abnormalities such as hemivertebrae, fusion or elongation of the vertebral bodies; modeling defects of the hands and feet; flame shaped lucencies of the hands or feet. • l. Ovarian fibroma. • m. Medulloblastoma (Modification of criteria of V Kimonis et al Am J Med Genet 69: 299-308, 1997). • 4. The participant must have 10 (with at least 3 on the face) clinically typical BCCs present within 24 months prior to Randomization (Baseline/Day 1). Additionally, the subject must have at least 2 BCCs with longest diameter <5 mm present on the face prior to Randomization (Baseline/Day 1). • 5. […] The participant is willing for all facial BCCs to be evaluated and treatment recommendations made only by the Investigator. • 10. […]

CC1=C2C[C@H]3[C@@H](CC[C@@H]4C[C@H](NS(C)(=O)=O)CC[C@@]43C)[C@@H]2CC[C@@]2(C1)O[C@@H]1C[C@H](C)CN[C@H]1[C@H]2C [Patidegib]
Proportion of SEBs clinically resolved, observed, Mean (month 3): 7.72
Proportion of SEBs clinically resolved, observed, Mean (month 6): 6.91
Proportion of SEBs clinically resolved, observed, Mean (month 9): 9.13
Proportion of SEBs clinically resolved, observed, Mean (month 12): 15.03
